Experimental data from patent US10202361B2, “Pyridazinones as herbicides” (E I DU PONT DE NEMOURS AND COMPANY, priority 2014, dated 2019).

Columns and labels:
Assay in all cases: Test D pre-/postemergence controlled growth environment herbicide test
Format in all cases: in vivo
Details in all cases: scale 0 to 100
[1] = system: downy bromegrass (Bromus tectorum)
Source text: (§1) Seeds of plant species selected from bluegrass (annual bluegrass, Poa annua), blackgrass (Alopecurus myosuroides), canarygrass (Phalaris minor), chickweed (common chickweed, Stellaria media), galium (catchweed bedstraw, Galium aparine), downy bromegrass (Bromus tectorum), field poppy (Papaver rhoeas), field violet (Viola arvensis), foxtail, green (green foxtail, Setaria viridis), deadnettle (henbit deadnettle, Lamium amplexicaule), ryegrass, Italian (Italian ryegrass, Lolium multiflorum), kochia (Kochia scoparia), lambsquarters (Chenopodium album), oilseed rape (Brassica napus), pigweed (Amaranthus retroflexus), chamomile (scentless chamomile, Matricaria inodora), Russian thistle (Salsola kali), speedwell (bird's-eye speedwell, Veronica persica), barley, spring (spring barley, Hordeum vulgare), wheat, spring (spring wheat, Triticum aestivum), buckwheat, wild (wild buckwheat, Polygonum convolvulus), mustard, wild (wild mustard, Sinapis arvensis), oat, wild (wild oat, Avena fatua), radish, wild (wild radish, Raphanus raphanistrum), windgrass (Apera spica-venti), barley, winter (winter barley, Hordeum vulgare), and wheat, winter (winter wheat, Triticum aestivum) were planted into a silt loam soil and treated preemergence with test chemicals formulated in a non-phytotoxic solvent mixture which included a surfactant.
(§2) At the same time, these species were planted in pots containing Redi-Earth® planting medium (Scotts Company, 14111 Scottslawn Road, Marysville, Ohio 43041) comprising spaghnum peat moss, vermiculite, wetting agent and starter nutrients and treated with postemergence applications of the test chemicals formulated in the same manner. Plants ranged in height from 2 to 18 cm (1- to 4-leaf stage). Treated plants and controls were maintained in a controlled growth environment for 14 to 21 d after which time all species were compared to controls and visually evaluated. Plant response ratings, summarized in Table D, are based on a scale of 0 to 100 where 0 is no effect and 100 is complete control. A dash (-) response means no test result.

[2] = system: wheat, spring (spring wheat, Triticum aestivum)
Source text: as §1, §2

[3] = system: galium (catchweed bedstraw, Galium aparine)
Source text: as §1, §2

[4] = system: wheat, winter (winter wheat, Triticum aestivum)
Source text: as §1, §2

[5] = system: barley, winter (winter barley, Hordeum vulgare)
Source text: as §1, §2

[6] = system: bluegrass (annual bluegrass, Poa annua)
Source text: as §1, §2

[7] = system: ryegrass, Italian (Italian ryegrass, Lolium multiflorum)
Source text: as §1, §2

[8] = system: barley, spring (spring barley, Hordeum vulgare)
Source text: as §1, §2

[9] = system: deadnettle (henbit deadnettle, Lamium amplexicaule)
Source text: as §1, §2

[10] = system: windgrass (Apera spica-venti)
Source text: as §1, §2

[11] = system: chamomile (scentless chamomile, Matricaria inodora)
Source text: as §1, §2

Measured: Plant response rating

COc1cc(=O)n(-c2ccc(F)cc2)nc1Cc1ccnc(C(F)(F)F)c1 [Compound 17, 2-(4-fluorophenyl)-5-methoxy-6-[[2-(trifluoromethyl)-4-pyridinyl]methyl]-3 (2H)-pyridazinone]
75: [5]; Preemergence, 250 g ai/ha
65: [9]; Postemergence, 125 g ai/ha
50: [1]; Preemergence, 500 g ai/ha | [3]; Postemergence, 31 g ai/ha | [7]; Preemergence, 250 g ai/ha | [9]; Postemergence, 31 g ai/ha | [9]; Postemergence, 62 g ai/ha
80: [5]; Preemergence, 500 g ai/ha | [7]; Preemergence, 500 g ai/ha | [10]; Preemergence, 31 g ai/ha | [10]; Preemergence, 62 g ai/ha | [11]; Preemergence, 62 g ai/ha
98: [3]; Postemergence, 250 g ai/ha | [9]; Postemergence, 250 g ai/ha
40: [5]; Preemergence, 125 g ai/ha | [11]; Postemergence, 62 g ai/ha | [11]; Postemergence, 125 g ai/ha
25: [1]; Postemergence, 250 g ai/ha | [5]; Postemergence, 125 g ai/ha | [6]; Preemergence, 125 g ai/ha | [10]; Postemergence, 500 g ai/ha
15: [1]; Postemergence, 125 g ai/ha | [1]; Preemergence, 125 g ai/ha | [2]; Postemergence, 62 g ai/ha | [2]; Preemergence, 62 g ai/ha | [5]; Postemergence, 31 g ai/ha | [5]; Postemergence, 62 g ai/ha | [7]; Postemergence, 250 g ai/ha | [8]; Postemergence, 125 g ai/ha | [8]; Postemergence, 250 g ai/ha | [8]; Preemergence, 31 g ai/ha
90: [2]; Preemergence, 500 g ai/ha | [3]; Postemergence, 125 g ai/ha | [4]; Preemergence, 500 g ai/ha | [8]; Preemergence, 500 g ai/ha
95: [11]; Preemergence, 125 g ai/ha
20: [2]; Postemergence, 125 g ai/ha | [2]; Postemergence, 250 g ai/ha | [3]; Preemergence, 125 g ai/ha | [4]; Postemergence, 500 g ai/ha | [5]; Preemergence, 62 g ai/ha | [6]; Postemergence, 500 g ai/ha | [8]; Preemergence, 62 g ai/ha | [8]; Preemergence, 125 g ai/ha | [11]; Postemergence, 31 g ai/ha
30: [1]; Postemergence, 500 g ai/ha | [1]; Preemergence, 250 g ai/ha | [2]; Postemergence, 500 g ai/ha | [2]; Preemergence, 125 g ai/ha | [4]; Preemergence, 250 g ai/ha | [5]; Postemergence, 250 g ai/ha
70: [2]; Preemergence, 250 g ai/ha | [3]; Postemergence, 62 g ai/ha | [8]; Preemergence, 250 g ai/ha
85: [6]; Preemergence, 500 g ai/ha
35: [5]; Postemergence, 500 g ai/ha | [7]; Postemergence, 500 g ai/ha | [8]; Postemergence, 500 g ai/ha
10: [1]; Postemergence, 31 g ai/ha | [1]; Postemergence, 62 g ai/ha | [1]; Preemergence, 31 g ai/ha | [1]; Preemergence, 62 g ai/ha | [2]; Postemergence, 31 g ai/ha | [4]; Postemergence, 125 g ai/ha | [4]; Postemergence, 250 g ai/ha | [5]; Preemergence, 31 g ai/ha | [6]; Postemergence, 250 g ai/ha | [7]; Postemergence, 31 g ai/ha | [7]; Postemergence, 62 g ai/ha | [7]; Postemergence, 125 g ai/ha | [8]; Postemergence, 62 g ai/ha | [10]; Postemergence, 250 g ai/ha
5: [3]; Preemergence, 31 g ai/ha | [3]; Preemergence, 62 g ai/ha | [4]; Postemergence, 62 g ai/ha | [6]; Postemergence, 31 g ai/ha | [6]; Postemergence, 62 g ai/ha | [6]; Postemergence, 125 g ai/ha | [8]; Postemergence, 31 g ai/ha | [10]; Postemergence, 62 g ai/ha | [10]; Postemergence, 125 g ai/ha
100: [3]; Postemergence, 500 g ai/ha | [3]; Preemergence, 250 g ai/ha | [3]; Preemergence, 500 g ai/ha | [9]; Postemergence, 500 g ai/ha | [9]; Preemergence, 31 g ai/ha | [9]; Preemergence, 62 g ai/ha | [9]; Preemergence, 125 g ai/ha | [9]; Preemergence, 250 g ai/ha | [9]; Preemergence, 500 g ai/ha | [10]; Preemergence, 125 g ai/ha | [10]; Preemergence, 250 g ai/ha | [10]; Preemergence, 500 g ai/ha | [11]; Preemergence, 250 g ai/ha | [11]; Preemergence, 500 g ai/ha
60: [6]; Preemergence, 250 g ai/ha | [11]; Postemergence, 250 g ai/ha | [11]; Postemergence, 500 g ai/ha
0: [2]; Preemergence, 31 g ai/ha | [4]; Postemergence, 31 g ai/ha | [4]; Preemergence, 31 g ai/ha | [4]; Preemergence, 62 g ai/ha | [4]; Preemergence, 125 g ai/ha | [6]; Preemergence, 31 g ai/ha | [6]; Preemergence, 62 g ai/ha | [7]; Preemergence, 31 g ai/ha | [7]; Preemergence, 62 g ai/ha | [7]; Preemergence, 125 g ai/ha | [10]; Postemergence, 31 g ai/ha | [11]; Preemergence, 31 g ai/ha
